# Data: patent publication US8058243B2, “Method for treating a brain cancer with ifenprodil” (HSC Research and Development Limited Partnership, priority 2006, dated 2011)
# Counter-ions that a name gives are not always drawn. Like-named read-outs stand apart in the source and are kept apart here.
# Test system: murine neural precursor cells (neurosphere cultures)
# Experiment: HTS of LOPAC library against secondary neurosphere cultures, MTT proliferation assay at 3 μM, day 7 (z score, P value)
# Format: cell-based, mouse
# [1] = LOPAC library screen, 3 μM, MTT, secondary neurosphere cultures, day 7
# [2] = LOPAC primary screen, neurosphere MTT proliferation, 3 μM, day 7
# [3] = yes/no: significantly inhibited neurosphere proliferation (P<0.01) in the primary screen
# [4] = yes/no: significantly inhibited neurosphere proliferation (P<0.01) in primary screen
# [5] = yes/no: significantly inhibited neurosphere proliferation in the primary screen
# [6] = LOPAC library screen, 3 μM, MTT, neurosphere cultures
# [7] = yes/no: significantly inhibited neurosphere proliferation in primary screen
# [8] = LOPAC screen, neurosphere MTT proliferation, 3 μM, day 7
# [9] = LOPAC library screen at 3 μM, secondary neurosphere cultures, MTT
# [10] = yes = significantly inhibited neurosphere proliferation (P<0.01) in the primary screen
# [11] = primary LOPAC screen, 3 μM, MTT, neurosphere proliferation
smiles,measurement,setting,value
CCC(=O)c1ccc2c(c1)N(CCCN(C)C)c1ccccc1S2 [Propionylpromazine hydrochloride],Z Score,[1],−1.584
same,Z score,[2],−1.584
same,Activity,[3],no
Cc1nc(-c2ccc(-c3ccc(C(=O)N4CCc5cc6c(cc54)C4(CCN(C)CC4)CO6)cc3)c(C)c2)no1.Cl [SB 224289 hydrochloride],Z Score,[1],−4.786
same,Z score,[2],−4.786
same,Activity,[3],yes
Cl.O=C(O)Cc1c[nH]cn1 [Imidazole-4-acetic acid hydrochloride],Z Score,,−0.9223
same,Z score,[2],−0.922
same,Activity,[4],no
N[C@H](CCCCCP(=O)(O)O)C(=O)O [D(−)-2-Amino-7-phosphonoheptanoic acid],Activity,,no
same,Z Score,,0.9855
same,Z score,,0.985
O=C(NCCNCC(O)COc1ccc(O)cc1)N1CCOCC1 (centres unmarked) [Xamoterol hemifumarate],Z Score,"168 h, 3 µM",−0.1243
same,Z score,"168 h, 3 µM",−0.124
same,Activity,[5],no
Br.CCCN(CCC)C1CCc2ccc(O)cc2C1 (racemic) [(±)-7-Hydroxy-DPAT hydrobromide],Z score,[2],−11.102
same,Activity,[3],yes
CCCn1c(=O)c2[nH]c(C3CCCC3)nc2n(CCCOC(=O)c2ccc(S(=O)(=O)F)cc2)c1=O [FSCPX],Z Score,,0.7825
same,Z score,[2],0.782
same,Activity,[4],no
C[C@@H]1C(=O)NC2=Nc3cccc(Cl)c3CN21 [Quazinone],Z Score,[6],0.2046
same,Z score,[2],0.205
same,Activity,[7],no
COc1cc2c(CCNC(C)=O)c[nH]c2cc1O [6-Hydroxymelatonin],Z Score,[6],0.3767
same,Z score,[2],0.377
same,Activity,[4],no
Cc1scc2c1N(C(=O)CN1CCN(C)CC1)c1ccccc1NC2=O [Telenzepine dihydrochloride],Z Score,"168 h, 3 µM",0.3813
same,Z score,"168 h, 3 µM",0.381
same,Activity,[5],no
Cc1cc(NC(=O)Nc2ccc3c(ccn3C)c2)sn1 [SB 204741],Z Score,,−2.299
same,Z score,[8],−2.299
same,Activity,[4],no
CN1CCC[C@@H]1CCO[C@](C)(c1ccccc1)c1ccc(Cl)cc1 [Clemastine fumarate],Z Score,"168 h, 3 µM",−2.023
same,Z score,"168 h, 3 µM",−2.023
COc1ccc(Cc2nccc3cc(OC)c(OC)cc23)cc1OC [Papaverine hydrochloride],Z Score,[9],−0.2992
same,Z score,[2],−0.299
same,Activity,[7],no
CC[C@@]1(O)C(=O)OCc2c1cc1n(c2=O)Cc2cc3ccccc3nc2-1 [(S)-(+)-Camptothecin],Z Score,[1],−9.67
same,Z score,[2],−9.670
same,Activity,[10],yes
CC(CN(C)C)CN1c2ccccc2CCc2ccccc21 (centres unmarked) [Trimipramine maleate],Z Score,[6],0.5677
same,Z score,[11],0.568
same,Activity,[5],no
C[n+]1cc2c3c(ccc2c2ccc4cc5c(cc4c21)OCO5)OCO3 [Sanguinarine chloride],Z Score,,−10.01
same,Z score,[2],−10.008
same,Activity,[3],yes
C=CCN1C[C@H](C)N([C@H](c2ccc(C(=O)N(CC)CC)cc2)c2cccc(OC)c2)C[C@H]1C [SNC80],Z Score,,−0.4575
same,Z score,[2],−0.457
same,Activity,[7],no
COc1ccccc1N1CCNCC1.Cl [1-(2-Methoxyphenyl)piperazine hydrochloride],Z Score,,−0.6388
same,Z score,[2],−0.639
same,Activity,[7],no
O=C(O)C1CN(CCCP(=O)(O)O)CCN1 (racemic) [(±)-CPP],Z score,[8],0.321
same,Activity,[4],no
NCCS [Cysteamine hydrochloride],Z Score,[9],−0.5989
same,Z score,[2],−0.599
same,Activity,[10],no
CCCNCC(O)COc1ccccc1C(=O)CCc1ccccc1 (centres unmarked) [Propafenone hydrochloride],Z Score,[9],−0.9673
same,Z score,[2],−0.967
same,Activity,[10],no
C[C@]12C[C@H](O)[C@H]3[C@@H](CCC4=CC(=O)CC[C@@]43C)[C@@H]1CC[C@@H]2C(=O)CO [Corticosterone],Activity,,no
same,Z Score,[1],−2.285
same,Z score,[11],−2.285
CCCN(CCC)C(=O)C(CCC(=O)O)NC(=O)c1ccccc1 (centres unmarked) [Proglumide],Z Score,[1],−1.907
same,Z score,[2],−1.907
same,Activity,[10],no
CCC1(c2ccc(N)cc2)CCC(=O)NC1=O (centres unmarked) [(B1)-p-Aminoglutethimide],Z Score,,−0.4441
COc1cc2c(c(OC)c1OC)-c1ccc(OC)c(=O)cc1[C@@H](NC(C)=O)CC2 [Colchicine],Activity,,yes
same,Z Score,,−10.75
same,Z score,,−10.753
CCN(CC)CCNC(=O)c1cc(S(C)(=O)=O)ccc1OC [Tiapride hydrochloride],Z Score,[6],0.6889
same,Z score,[2],0.689
same,Activity,[3],no
CNCC(O)c1ccc(O)cc1 (centres unmarked) [(B1)-Synephrine],Z Score,,−0.1488
